Measurements published in US5637624A, “Ring-substituted 2-amino-1,2,3,4-tetrahydronaphthalenes and 3-aminochromanes” (Eli Lilly and Company, priority 1993, dated 1997).
Where a name gives a salt, the structure may show the parent alone. Read-outs that look alike come from different tables or passages of the source.

Columns and labels:
5-HT1A receptors = target: T1, 5-HT1A receptors (Rattus norvegicus, UniProt P19327); test: Inhibition of 3H-8-OH-DPAT binding at 5-HT1A in vitro (rat cerebral cortex synaptosomal membranes); design: species or system Male Sprague-Dawley rats (cerebral cortex)
T1 construct: synaptosomal membranes isolated from cerebral cortex; from tissue; host or cells: cerebral cortex of male Sprague-Dawley rats, crude synaptosomal membranes
T1 sequence (P19327 1-422): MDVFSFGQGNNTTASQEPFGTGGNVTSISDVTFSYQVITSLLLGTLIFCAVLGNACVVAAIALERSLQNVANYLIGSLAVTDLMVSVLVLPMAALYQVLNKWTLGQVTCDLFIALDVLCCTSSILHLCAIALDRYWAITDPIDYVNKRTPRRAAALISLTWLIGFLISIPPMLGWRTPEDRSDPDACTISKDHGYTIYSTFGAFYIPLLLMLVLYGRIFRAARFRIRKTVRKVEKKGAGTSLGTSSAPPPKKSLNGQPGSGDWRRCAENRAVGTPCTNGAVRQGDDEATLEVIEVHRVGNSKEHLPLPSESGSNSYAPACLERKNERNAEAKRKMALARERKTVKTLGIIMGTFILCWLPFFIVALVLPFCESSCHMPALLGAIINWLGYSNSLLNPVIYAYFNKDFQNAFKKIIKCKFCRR
Protocol: This general procedure is set forth in Wong et al., J. Neural Transm. 71:207-218 (1988).
Male Sprague-Dawley rats (110-150 g) from Harlan Industries (Cumberland, Ind.) were fed a Purina Chow ad libitum for at least 3 days before being used in the studies. Rats were killed by decapitation. The brains were rapidly removed, and the cerebral cortices were dissected out at 4° C.
Brain tissues were homogenized in 0.32M sucrose. After centrifugation at 1000×g for 10 min and then at 17000×g for 20 min, a crude synaptosomal fraction was sedimented. The pellet was suspended in 100 vol of 50 mM Tris-HCl, pH 7.4, incubated at 37° C. for 10 min, and centrifuged at 50000×g for 10 min. The process was repeated and the final pellet was suspended in ice-chilled 50 mM Tris-HCl, pH 7.4. By the radioligand binding method, sites specifically labeled by tritiated 8-hydroxy-2-dipropylamino1,2,3,4-tetrahydronaphthalene (^3 H-8-OH-DPAT) have been identified as 5-HT1A receptors.
Binding of (hu 3H-8-OH-DPAT) was performed according to the previously described method [Wong et. al., J. Neural Transm. 64:251-269 (1985)]. Briefly, synaptosomal membranes isolated from cerebral cortex were incubated at 37° C. for 10 min. in 2 ml of 50 mM Tris-HCl, pH 7.4; 10 μM pargyline; 0.6 mM ascorbic acid; and 0.4 nM ^3 H-8-OH-DPAT. Binding was terminated by filtering samples under reduced pressure through glass fiber (GFB) filters. The filters were washed twice with 5 ml of ice cold buffer and placed in scintillation vials with 10 ml of PCS (Amersham/Searle) scintillation fluid. Radioactivity was measured with a liquid scintillation spectrometer. Unlabeled 8-OH-DPAT at 10 μM was also included in separate samples to establish non-specific binding. Specific binding of ^3 H-8-OH-DPAT is defined as the difference of radioactivity bound in the absence and in the presence of 10 μM unlabeled 8-OH-DPAT.

[1] = system: 5-hydroxyindoleacetic acid (5-HIAA), a metabolite of 5-HT, in whole brain; test: Effectiveness by oral administration: decrease in brain concentration of 5-HIAA; type: in vivo, male Sprague-Dawley rats; conditions: p.o.; for minimal effective dose: Rattus norvegicus, po, 2 h, read-out: minimum effective dose when administered orally; for Percent Reduction over Control (5-HIAA) / 5-HIAA Concentration in Whole Brain: 2 hours; for 5-HIAA Concentration in Whole Brain: control 1.67 ± 0.08
Protocol: The activity of compounds of this invention when administered orally was determined and compared with literature compounds structurally related to the compounds of this invention. Thus, the test compound was administered to male Sprague-Dawley rats orally (p.o.), five rats being used in each test group. The rats were sacrificed two hours following p.o. administration, and the brain concentration of 5-hydroxyindoleacetic acid (5-HIAA), a metabolite of 5-HT, was measured.

[2] = Effectiveness by subcutaneous (s.c.) administration; type: in vivo; conditions: for minimal effective dose: sc, read-out: minimum effective dose when administered subcutaneously
[3] = Hygroscopicity observed on isolation of the salt; type: physicochemical; conditions: fumarate salt, recrystallized from ethanol/diethyl ether
Protocol: To a solution of water (60 mL) which contains methanesulfonic acid (0.16 mL, 2.33 mMol) was added 2-di-propylamino-8-methylthio-1,2,3,4-tetrahydronaphthalene (630 mg, 2.33 mMol). To this solution was added a solution of sodium metaperiodate (550 mg, 2.57 mMol) in water (10 mL), and the reaction mixture was stirred for two days at room temperature. The reaction mixture was made basic (NH4 OH) and extracted with dichloromethane. The organic extracts were combined, dried (Na2 SO4) and concentrated in vacuo to give the crude title compound as a light yellow oil. Purification by flash chromatography (3% methanol in dichloromethane+tr. NH4 OH) gave the desired product (580 mg, 85%) as a colorless oil. The fumarate salt was formed. […] Drying in a vacuum dessicator (60° C., 18 hours) gave a colorless glass (260 mg, m.p. =63° C.).

`CCCN(CCC)[C@@H]1CCc2cccc(SC)c2[C@@H]1C` (relative stereo) [Example 8, cis-1-Methyl-2-di-n-propylamino-8-thiomethyl-1,2,3,4-tetrahydronaphthalene] gave an IC50 (5-HT1A receptors; 0.4 nM 3H-8-OH-DPAT, rat cerebral cortex synaptosomal membranes, 37° C., 10 min, pH 7.4, read-out: IC50, 5HT1a (concentration required to inhibit the binding of 3H-8-OH-DPAT by 50%)) of 0.297 µM.
For `CCCN(CCC)C1CCc2cccc(SC)c2C1` (stereo not drawn) [Example 1, 2-Di-n-propylamino-8-thiomethyl1,2,3,4-tetrahydronaphthalene], the minimal effective dose [1] was ~1 mg/kg, the “Percent Reduction over Control (5-HIAA)” value ([1]; 0.1 mg/Kg) was 0% and the “5-HIAA Concentration in Whole Brain” value ([1]; 0.1 mg/Kg) was 1.56 ± 0.04 nmol/g. The “Percent Reduction over Control (5-HIAA)” value ([1]; 1 mg/Kg) was 13%, the “5-HIAA Concentration in Whole Brain” value ([1]; 1 mg/Kg) was 1.45 ± 0.03 nmol/g and the “Percent Reduction over Control (5-HIAA)” value ([1]; 10 mg/Kg) was 25%. For the same molecule, the “5-HIAA Concentration in Whole Brain” value ([1]; 10 mg/Kg) was 1.25 ± 0.06 nmol/g, the “minimum effective dose relative to 8-OH-DPAT, oral” value ([1]; vs 8-OH-DPAT) was “about ten-fold less” and the minimal effective dose [2] was ~0.3 mg/kg. For the same molecule, the “potency relative to 8-OH-DPAT, subcutaneous” value ([2]; vs 8-OH-DPAT) was “about ten-fold less potent” and the IC50 (5-HT1A receptors) was 0.0003 µM.
Molecule `CCCN(CCC)C1CCc2cccc(SCC)c2C1` (stereo not drawn) [Example 2, 2-Di-n-propylamino-8-thioethyl-1,2,3,4-tetrahydronaphthalene] has an IC50 (5-HT1A receptors) of 0.0307 µM.
For `CCCN(CCC)C1CCc2cccc(Sc3ccccc3)c2C1` (stereo not drawn) [Example 3, 2-Di-n-propylamino-8-thiophenyl-1,2,3,4-tetrahydronaphthalene], the IC50 (5-HT1A receptors) was 0.0222 µM.
Work on `CCCN(CCC)C1CCc2cccc(SCc3ccccc3)c2C1` (stereo not drawn) [Example 4, 2-Di-n-propylamino-8-thiobenzyl-1,2,3,4-tetrahydronaphthalene] yielded an IC50 (5-HT1A receptors) of 0.0028 µM.
For `CCCN(CCC)C1CCc2cccc([S+](C)[O-])c2C1` (stereo not drawn) [Example 5, 2-Di-n-propylamino-8-methylsulfinyl-1,2,3,4-tetrahydronaphthalene], the hygroscopicity [3] was “extremely hygroscopic” and the IC50 (5-HT1A receptors) was 0.0711 µM.
Work on `CCCN(CCC)C1CCc2cccc(S(C)(=O)=O)c2C1` (stereo not drawn) [Example 6, 2-Di-n-propylamino-8-methylsulfonyl-1,2,3,4-tetrahydronaphthalene] yielded an IC50 (5-HT1A receptors) of 0.01 µM.
Molecule `CSc1cccc2c1CC(N(C)C)CC2` (stereo not drawn) [Example 7, 2-Dimethylamino-8-thiomethyl-1,2,3,4-tetrahydronaphthalene] has an IC50 (5-HT1A receptors) of 0.021 µM.
For `CCCN(CCC)C1CCc2cccc(O)c2C1` (stereo not drawn) [Example 8-OH-DPAT, 8-hydroxy-2-dipropylamino1,2,3,4-tetrahydronaphthalene, reference compound], the minimal effective dose [1] was ~10 mg/kg, the “Percent Reduction over Control (5-HIAA)” value ([1]; 0.1 mg/Kg) was 0% and the “5-HIAA Concentration in Whole Brain” value ([1]; 0.1 mg/Kg) was 1.62 ± 0.07 nmol/g. The “Percent Reduction over Control (5-HIAA)” value ([1]; 1 mg/Kg) was 0%, the “5-HIAA Concentration in Whole Brain” value ([1]; 1 mg/Kg) was 1.75 ± 0.05 nmol/g and the “Percent Reduction over Control (5-HIAA)” value ([1]; 10 mg/Kg) was 16%. For the same molecule, the “5-HIAA Concentration in Whole Brain” value ([1]; 10 mg/Kg) was 1.40 ± 0.06 nmol/g and the minimal effective dose [2] was ~0.03 mg/kg.
For `CCCN(CCC)C1CCc2cccc(Sc3ccc(C)cc3)c2C1` (stereo not drawn) [Example 9], the IC50 (5-HT1A receptors) was 0.059 µM.
For `CCCN(CCC)C1CCc2cccc(Sc3ccccn3)c2C1` (stereo not drawn) [Example 10], the IC50 (5-HT1A receptors) was 0.009 µM.
For `CCCN(CCC)C1COc2cccc(SC)c2C1` (stereo not drawn) [Example 11, 3-(Di-n-propylamino)-5-methylthio-chromane hydrochloride], the IC50 (5-HT1A receptors) was 0.0025 µM.
